Reference: patent US20050074879A1, “Antisense oligonucleotide modulation of STAT3 expression” (priority 2000, published 2005)
Oligonucleotides are written 5' to 3', each unit as a sugar letter and its base; * is a phosphorothioate linkage, no mark a phosphodiester; rarer units and linkages stand in square brackets, end groups in braces. Plain capitals give the bases only. e = 2'-O-(2-methoxyethyl) (MOE); [5mC] = 5-methylcytosine; d = 2'-deoxy (DNA)

test system: Human STAT3 mRNA; experiment: Inhibition of human STAT3 mRNA levels in A549 cells, 75 nM, real-time PCR (Table 13); assay type: cell-based; details: 75 nM oligonucleotide with LIPOFECTIN, real-time PCR PPS 199, percent inhibition relative to untreated control cells, average of 2 experiments
Description: Oligonucleotide activity is assayed by quantitation of STAT3 mRNA levels by real-time PCR (RT-PCR) using the ABI PRISMS 7700 Sequence Detection System (PE-Applied Biosystems, Foster City, Calif.) according to manufacturer's instructions. This is a closed-tube, non-gel-based, fluorescence detection system which allows high-throughput quantitation of polymerase chain reaction (PCR) products in real-time. As opposed to standard PCR, in which amplification products are quantitated after the PCR is completed, products in RT-PCR are quantitated as they accumulate. This is accomplished by including in the PCR reaction an oligonucleotide probe that anneals specifically between the forward and reverse PCR primers, and contains two fluorescent dyes. A reporter dye (e.g., JOE or FAM, PE-Applied Biosystems, Foster City, Calif.) is attached to the 5′ end of the probe and a quencher dye (e.g., TAMRA, PE-Applied Biosystems, Foster City, Calif.) is attached to the 3′ end of the probe. When the probe and dyes are intact, reporter dye emission is quenched by the proximity of the 3′ quencher dye. During amplification, annealing of the probe to the target sequence creates a substrate that can be cleaved by the 5′-exonuclease activity of Taq polymerase. […] With each cycle, additional reporter dye molecules are cleaved from their respective probes, and the fluorescence intensity is monitored at regular (six-second) intervals by laser optics built into the ABI PRISM™ 7700 Sequence Detection System. In each assay, a series of parallel reactions containing serial dilutions of mRNA from untreated control samples generates a standard curve that is used to quantitate the percent inhibition after antisense oligonucleotide treatment of test samples.
RT-PCR reagents are obtained from PE-Applied Biosystems, Foster City, Calif. RT-PCR reactions are carried out by adding 25 l PCR cocktail (1× TAQMAN7 buffer A, 5.5 mM MgCl2, 300 µM each of DATP, dCTP and dGTP, 600 µM of dUTP, 100 nM each of forward primer, reverse primer, and probe, 20 U RNAse inhibitor, 1.25 units AMPLITAQ GOLD7, and 12.5 U MuLV reverse transcriptase) to 96 well plates containing 25 l poly(A) mRNA solution. The RT reaction is carried out by incubation for 30 minutes at 48° C. following a 10 minute incubation at 95° C. to activate the AMPLITAQ GOLD7, 40 cycles of a two-step PCR protocol are carried out: 95° C. for 15 seconds (denaturation) followed by 60° C. for 1.5 minutes (annealing/extension).
The compounds were analyzed for their effect on STAT3 mRNA levels in A549 cells. The human lung carcinoma cell line A549 was obtained from the American Type Culture Collection (ATCC) (Manassas, Va.). A549 cells were routinely cultured in DMEM basal media (Invitrogen Corporation, Carlsbad, Calif.) supplemented with 10% fetal calf serum (Invitrogen Corporation, Carlsbad, Calif.), 100 units/mL penicillin, and 100 ug/mL streptomycin (Invitrogen Corporation, Carlsbad, Calif.). Cells were routinely passaged by trypsinization and dilution when they reached 90% confluence.
When cells reached 65-75% confluency, they were treated with oligonucleotide. For cells grown in 96-well plates, wells were washed once with […] OPTI-MEM-1 reduced-serum medium (Invitrogen Corporation, Carlsbad, Calif.) and then treated with 130 µL of OPTI-MEM-1 containing […] LIPOFECTIN (Invitrogen Corporation, Carlsbad, Calif.) and 75 nM of the compounds in Table 13. Cells were treated and data were obtained in duplicate. Untreated cells served as controls. After 4-7 hours of treatment at 37° C., the medium was replaced with fresh medium. Cells were harvested 16-24 hours after oligonucleotide treatment. STAT3 mRNA levels in A549 cells were quantitated by real-time PCR as described by other methods herein.
Probes and primers to human STAT3 were designed to hybridize to a human STAT3 sequence, using published sequence information (incorporated herein as SEQ ID NO: 1). For STAT 3 the PCR primers were: • forward primer: […]

Point of comparison: “337298 (antisense eA*eG*eT*eT*eG*dA*dG*dA*dT*dT*d[5mC]*dT*dG*d[5mC]*dT*eA*eA*eT*eG*eA) [compound 337298]”, “% Inhib (inhibition of human STAT 3 mRNA levels)” value 74%. Against it:
- 337341 (antisense eT*eG*eA*eT*eG*dA*dT*dT*dT*d[5mC]*dA*dG*d[5mC]*dA*dA*eA*eT*eG*eA*e[5mC]) [compound 337341] — the same, 74%
- 337281 (antisense eG*eG*eG*eT*eT*dT*dT*dA*dT*dA*dG*dT*dT*dG*dA*eA*eA*eT*e[5mC]*eA) [compound 337281] — lower, 16%
- 337385 (antisense eT*eT*eA*eA*eG*dT*dT*dT*d[5mC]*dT*dT*dA*dA*dA*dT*eA*e[5mC]*eA*eG*eA) [compound 337385] — lower, 70%
- 337249 (antisense eT*eT*eG*eG*eG*d[5mC]*d[5mC]*dA*dT*d[5mC]*d[5mC]*dT*dG*d[5mC]*dT*eA*eA*eA*eA*eT) [compound 337249] — lower, 48%
- 337327 (antisense eT*e[5mC]*e[5mC]*e[5mC]*eA*dA*dG*dA*dG*dT*dT*dT*d[5mC]*dT*d[5mC]*eT*eG*e[5mC]*e[5mC]*eA) [compound 337327] — higher, 84%
- 337308 (antisense e[5mC]*e[5mC]*e[5mC]*eA*eG*dA*dA*dT*dG*dT*dT*dA*dA*dA*dT*eT*eT*e[5mC]*e[5mC]*eG) [compound 337308] — lower, 70%
- 337371 (antisense eG*eA*eA*e[5mC]*eA*d[5mC]*dA*dT*d[5mC]*d[5mC]*dT*dT*dA*dT*dT*eT*eG*e[5mC]*eA*eT) [compound 337371] — higher, 76%
- 337324 (antisense eG*e[5mC]*eA*eT*eT*dT*dG*dG*d[5mC]*dA*dT*d[5mC]*dT*dG*dA*e[5mC]*eA*eG*eA*eT) [compound 337324] — higher, 79%
- 337302 (antisense eT*eT*eG*eA*e[5mC]*d[5mC]*dA*dG*d[5mC]*dA*dA*d[5mC]*d[5mC]*dT*dG*eA*e[5mC]*eT*eT*eT) [compound 337302] — lower, 61%
- 337305 (antisense e[5mC]*eT*eT*eT*eA*dA*dT*dT*dT*dT*dA*dA*dG*d[5mC]*dT*eG*eA*eT*eA*eA) [compound 337305] — lower, 25%
- 337269 (antisense eT*eT*e[5mC]*eT*e[5mC]*dA*dA*dG*dA*dT*dA*d[5mC]*d[5mC]*dT*dG*e[5mC]*eT*e[5mC]*eT*eG) [compound 337269] — the same, 74%
- 337362 (antisense eA*eT*eT*eT*e[5mC]*d[5mC]*dA*dA*dA*d[5mC]*dT*dG*d[5mC]*dA*dT*e[5mC]*eA*eA*eT*eG) [compound 337362] — lower, 69%
- 337361 (antisense e[5mC]*eA*eA*eA*e[5mC]*dT*dG*d[5mC]*dA*dT*d[5mC]*dA*dA*dT*dG*eA*eA*eT*e[5mC]*eT) [compound 337361] — lower, 61%
- 337252 (antisense e[5mC]*eT*eG*eA*eA*d[5mC]*dT*dT*dA*d[5mC]*d[5mC]*d[5mC]*dT*d[5mC]*dT*eG*eA*eG*eA*eG) [compound 337252] — lower, 60%
- 337382 (antisense eG*eG*e[5mC]*eT*eT*dA*dG*dA*dT*dA*dG*dT*d[5mC]*d[5mC]*dT*eA*eT*e[5mC]*eT*eT) [compound 337382] — higher, 84%
- 337370 (antisense eT*eG*e[5mC]*eA*eT*dT*dT*dA*dG*dA*dT*dA*dA*dA*dA*eG*e[5mC]*eA*eG*eA) [compound 337370] — higher, 78%
- 337259 (antisense e[5mC]*e[5mC]*eA*eT*e[5mC]*d[5mC]*dT*dG*d[5mC]*dT*dA*dA*dA*dA*dT*e[5mC]*eA*eG*eG*eG) [compound 337259] — lower, 58%
- 337251 (antisense eA*eT*eG*e[5mC]*e[5mC]*d[5mC]*dT*dT*dA*d[5mC]*dT*d[5mC]*dT*d[5mC]*d[5mC]*eG*e[5mC]*eA*eT*e[5mC]) [compound 337251] — the same, 74%
- 337262 (antisense eA*eA*e[5mC]*eT*eG*d[5mC]*d[5mC]*dG*d[5mC]*dA*dG*d[5mC]*dT*d[5mC]*d[5mC]*eA*eT*eT*eG*eG) [compound 337262] — the same, 74%
- 337375 (antisense eA*e[5mC]*e[5mC]*eA*eG*dG*dA*dG*dG*d[5mC]*dA*d[5mC]*dT*dT*dG*eT*e[5mC]*eT*eA*eA) [compound 337375] — higher, 89%
- 337290 (antisense eG*eA*eG*e[5mC]*eA*dT*d[5mC]*dT*dG*dT*dT*d[5mC]*d[5mC]*dA*dG*e[5mC]*eT*eG*e[5mC]*eT) [compound 337290] — higher, 80%
- 337304 (antisense eT*eT*eT*eT*eA*dA*dG*d[5mC]*dT*dG*dA*dT*dA*dA*dT*eT*e[5mC]*eA*eA*e[5mC]) [compound 337304] — lower, 15%
- 337307 (antisense eT*e[5mC]*eA*eA*eT*dG*d[5mC]*dA*d[5mC]*dA*d[5mC]*dT*dT*dT*dA*eA*eT*eT*eT*eT) [compound 337307] — lower, 53%
- 337373 (antisense e[5mC]*eA*e[5mC]*eA*eT*d[5mC]*d[5mC]*d[5mC]*d[5mC]*dT*dG*dA*dT*d[5mC]*dA*eT*eG*eG*eG*eT) [compound 337373] — lower, 70%
- 337296 (antisense e[5mC]*e[5mC]*eA*eG*eT*dT*dT*dT*d[5mC]*dT*dA*dG*d[5mC]*d[5mC]*dG*eA*eT*e[5mC]*eT*eA) [compound 337296] — higher, 80%
- 337286 (antisense eA*eT*eT*e[5mC]*eA*dG*dA*dT*d[5mC]*dT*dT*dG*d[5mC]*dA*dT*eG*eT*e[5mC]*eT*e[5mC]) [compound 337286] — higher, 77%
- 337297 (antisense eA*e[5mC]*eG*eT*eT*dA*dT*d[5mC]*d[5mC]*dA*dG*dT*dT*dT*dT*e[5mC]*eT*eA*eG*e[5mC]) [compound 337297] — lower, 72%
- 337256 (antisense eG*eA*eA*eG*eG*dG*d[5mC]*d[5mC]*dT*d[5mC]*dT*d[5mC]*d[5mC]*dG*dA*eG*e[5mC]*e[5mC]*eG*eA) [compound 337256] — lower, 67%
- 337323 (antisense eT*eG*eG*e[5mC]*eA*dT*d[5mC]*dT*dG*dA*d[5mC]*dA*dG*dA*dT*eG*eT*eT*eG*eG) [compound 337323] — higher, 79%
- 337359 (antisense e[5mC]*eA*eA*eT*eG*dA*dA*dT*d[5mC]*dT*dA*dA*dA*dG*dT*eG*e[5mC]*eG*eG*eG) [compound 337359] — lower, 57%
- 337376 (antisense eG*e[5mC]*eA*eG*eG*d[5mC]*dA*d[5mC]*d[5mC]*dA*dG*dG*dA*dG*dG*e[5mC]*eA*e[5mC]*eT*eT) [compound 337376] — higher, 83%
- 337279 (antisense eG*eT*eT*eG*eA*dA*dA*dT*d[5mC]*dA*dA*dA*dG*dT*d[5mC]*eA*eT*e[5mC]*e[5mC]*eT) [compound 337279] — higher, 78%
- 337352 (antisense eA*eT*eA*eA*eA*d[5mC]*dT*dT*dG*dG*dT*d[5mC]*dT*dT*d[5mC]*eA*eG*eG*eT*eA) [compound 337352] — higher, 80%
